Laboratory results from ChEMBL document CHEMBL1201862, “PubChem BioAssay data set” (2004).
Structures can show the parent of a compound that is named as a salt. Active and inactive are the calls of the source.

Columns and labels:
[1] = system: Vero; test: cells; format: functional, cell-based; settings: Chlorocebus sabaeus
[2] = system: Vero; test: cells; format: functional; settings: Chlorocebus sabaeus
[3] = NIH3T3 cell viability loss – ATP luminescence, mouse fibroblasts, counter-screen, dose response (AID 2010); format: functional, cell-based;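 further: cells exposed to compound for about 90 hours before reading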
[4] = target: Phospholipase A2 (Homo sapiens, UniProt P04054); format: functional;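 further: confirmatory dose-response counterscreen on phospholipase A2, testing hits that came from an ultra-high-throughput screen for ATG4B inhibitors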
[5] = Trypanosoma cruzi growth suppression in host cells – NIH3T3 host cells, beta-gal luminescence, confirmation (AID 2044); format: functional, cell-based;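 further: intracellular parasites grown in NIH/3T3 mouse fibroblasts as host cells; luminescent beta-galactosidase reporter signal from transgenic T. cruzi replicating inside host cells; inhibitors lower the luminescence signal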
[6] = target: T1, Cysteine protease ATG4B (Homo sapiens, UniProt Q9Y4P1); format: functional;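 further: Fluorescence-based dose-response confirmation assay measuring inhibition of ATG4B activity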
T1 sequence (Q9Y4P1 whole entry): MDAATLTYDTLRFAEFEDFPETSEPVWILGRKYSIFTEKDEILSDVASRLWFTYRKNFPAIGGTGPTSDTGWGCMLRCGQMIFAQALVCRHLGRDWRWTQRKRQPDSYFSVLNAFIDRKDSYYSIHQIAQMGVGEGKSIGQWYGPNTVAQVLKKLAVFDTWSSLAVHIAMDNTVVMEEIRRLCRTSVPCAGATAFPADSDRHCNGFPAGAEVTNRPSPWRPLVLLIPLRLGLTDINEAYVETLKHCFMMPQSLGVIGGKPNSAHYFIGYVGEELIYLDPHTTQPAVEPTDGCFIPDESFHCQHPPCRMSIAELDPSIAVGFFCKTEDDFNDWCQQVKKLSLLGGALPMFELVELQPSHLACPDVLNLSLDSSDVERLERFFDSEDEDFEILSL

[7] = target: DNA (cytosine-5)-methyltransferase 1 (Homo sapiens, UniProt P26358); test: inhibition of DNA methylation by DNMT1 – biochemical, fluorescent molecular beacon, confirmation (AID 602386); format: functional
[8] = target: Cytochrome P450 2D6 (Homo sapiens, UniProt P10635);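 further: CYP2D6 member of a cytochrome P450 panel assay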
[9] = target: Cytochrome P450 3A4 (Homo sapiens, UniProt P08684);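 further: CYP3A4 tested as one member of a cytochrome P450 panel screen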
[10] = target: Glucose-6-phosphate 1-dehydrogenase (Homo sapiens, UniProt P11413); test: inhibition of Homo sapiens G6PD, dose series – biochemical, fluorescence, selectivity assay for P. falciparum G6PD inhibitor project, dose response (AID 504792); format: functional
[11] = target: T2, Mannose-6-phosphate isomerase (Homo sapiens, UniProt P34949); test: MPI inhibition at elevated mannose 6-phosphate – biochemical, fluorescence intensity, high mannose 6-phosphate, primary screen (AID 1220)
T2 sequence (P34949 whole entry): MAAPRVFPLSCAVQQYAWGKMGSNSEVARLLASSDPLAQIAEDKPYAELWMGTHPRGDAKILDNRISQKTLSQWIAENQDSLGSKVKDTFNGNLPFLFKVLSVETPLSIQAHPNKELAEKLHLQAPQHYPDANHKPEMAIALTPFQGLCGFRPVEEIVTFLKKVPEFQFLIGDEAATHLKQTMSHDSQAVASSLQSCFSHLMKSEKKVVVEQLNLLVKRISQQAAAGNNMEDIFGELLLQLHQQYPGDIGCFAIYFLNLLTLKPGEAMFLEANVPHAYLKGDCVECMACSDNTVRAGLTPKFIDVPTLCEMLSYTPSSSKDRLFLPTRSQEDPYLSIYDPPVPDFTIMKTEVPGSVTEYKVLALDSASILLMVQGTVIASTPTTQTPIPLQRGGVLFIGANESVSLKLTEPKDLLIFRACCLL

[12] = system: HeLa; test: ATP-based viability loss in HeLa cells – cell-based, CellTiter-Glo luminescence, cherry-pick samples, cytotoxicity control for MITF activator project, dose response (AID 540259); format: functional; settings: Homo sapiens
[13] = target: T3, Probable nicotinate-nucleotide adenylyltransferase (Staphylococcus aureus (strain N315), UniProt P65502); format: functional, Staphylococcus aureus subsp. aureus N315; settings: read-out: IC50_Mean;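 on IC50 Mean: confirmatory dose-response retesting of NadD inhibitor hits first found in an ultra-high-throughput screen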
[14] = target: T3, Probable nicotinate-nucleotide adenylyltransferase; format: functional, Staphylococcus aureus subsp. aureus N315
[15] = target: Voltage-gated inwardly rectifying potassium channel KCNH2 (Homo sapiens, UniProt Q12809); settings: Potency;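 further: confirmatory quantitative high-throughput screen measuring inhibition of hERG channel activity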
Chain of Voltage-gated inwardly rectifying potassium channel KCNH2 (Q12809 whole entry): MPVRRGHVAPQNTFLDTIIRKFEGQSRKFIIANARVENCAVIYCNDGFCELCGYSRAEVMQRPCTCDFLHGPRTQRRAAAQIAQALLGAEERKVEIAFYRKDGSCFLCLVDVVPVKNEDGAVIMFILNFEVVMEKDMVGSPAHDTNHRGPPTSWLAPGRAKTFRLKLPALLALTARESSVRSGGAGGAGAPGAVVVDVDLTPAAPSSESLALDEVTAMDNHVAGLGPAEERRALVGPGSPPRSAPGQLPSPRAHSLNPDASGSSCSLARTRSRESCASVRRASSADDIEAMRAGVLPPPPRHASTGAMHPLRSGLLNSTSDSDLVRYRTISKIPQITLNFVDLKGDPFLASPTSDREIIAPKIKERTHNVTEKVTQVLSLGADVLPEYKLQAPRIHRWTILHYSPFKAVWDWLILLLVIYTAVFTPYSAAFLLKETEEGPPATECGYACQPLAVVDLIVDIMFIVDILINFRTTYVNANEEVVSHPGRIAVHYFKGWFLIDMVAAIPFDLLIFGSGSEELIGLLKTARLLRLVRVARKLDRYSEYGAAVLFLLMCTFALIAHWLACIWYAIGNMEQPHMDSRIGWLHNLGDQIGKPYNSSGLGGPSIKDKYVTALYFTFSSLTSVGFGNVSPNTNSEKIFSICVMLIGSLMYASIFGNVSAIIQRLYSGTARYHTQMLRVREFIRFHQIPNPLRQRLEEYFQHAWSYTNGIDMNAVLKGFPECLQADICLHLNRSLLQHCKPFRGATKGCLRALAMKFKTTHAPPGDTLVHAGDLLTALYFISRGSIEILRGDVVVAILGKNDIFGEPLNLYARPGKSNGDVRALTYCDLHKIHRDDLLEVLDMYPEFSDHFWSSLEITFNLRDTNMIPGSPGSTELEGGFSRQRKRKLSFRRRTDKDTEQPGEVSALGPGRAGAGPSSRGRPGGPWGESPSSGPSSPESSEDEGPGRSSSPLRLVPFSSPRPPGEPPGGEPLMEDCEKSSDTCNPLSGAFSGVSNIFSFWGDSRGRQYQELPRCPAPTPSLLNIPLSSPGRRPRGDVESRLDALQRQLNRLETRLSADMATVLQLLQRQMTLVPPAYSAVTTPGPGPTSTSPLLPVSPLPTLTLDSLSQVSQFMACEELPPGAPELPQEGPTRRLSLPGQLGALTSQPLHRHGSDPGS

Chain of Phospholipase A2 (P04054 whole entry): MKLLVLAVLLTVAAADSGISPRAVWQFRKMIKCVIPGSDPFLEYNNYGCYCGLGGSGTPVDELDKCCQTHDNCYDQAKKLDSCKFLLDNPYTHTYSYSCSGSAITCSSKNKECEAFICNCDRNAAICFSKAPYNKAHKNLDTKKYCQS
Chain of DNA (cytosine-5)-methyltransferase 1 (P26358 whole entry): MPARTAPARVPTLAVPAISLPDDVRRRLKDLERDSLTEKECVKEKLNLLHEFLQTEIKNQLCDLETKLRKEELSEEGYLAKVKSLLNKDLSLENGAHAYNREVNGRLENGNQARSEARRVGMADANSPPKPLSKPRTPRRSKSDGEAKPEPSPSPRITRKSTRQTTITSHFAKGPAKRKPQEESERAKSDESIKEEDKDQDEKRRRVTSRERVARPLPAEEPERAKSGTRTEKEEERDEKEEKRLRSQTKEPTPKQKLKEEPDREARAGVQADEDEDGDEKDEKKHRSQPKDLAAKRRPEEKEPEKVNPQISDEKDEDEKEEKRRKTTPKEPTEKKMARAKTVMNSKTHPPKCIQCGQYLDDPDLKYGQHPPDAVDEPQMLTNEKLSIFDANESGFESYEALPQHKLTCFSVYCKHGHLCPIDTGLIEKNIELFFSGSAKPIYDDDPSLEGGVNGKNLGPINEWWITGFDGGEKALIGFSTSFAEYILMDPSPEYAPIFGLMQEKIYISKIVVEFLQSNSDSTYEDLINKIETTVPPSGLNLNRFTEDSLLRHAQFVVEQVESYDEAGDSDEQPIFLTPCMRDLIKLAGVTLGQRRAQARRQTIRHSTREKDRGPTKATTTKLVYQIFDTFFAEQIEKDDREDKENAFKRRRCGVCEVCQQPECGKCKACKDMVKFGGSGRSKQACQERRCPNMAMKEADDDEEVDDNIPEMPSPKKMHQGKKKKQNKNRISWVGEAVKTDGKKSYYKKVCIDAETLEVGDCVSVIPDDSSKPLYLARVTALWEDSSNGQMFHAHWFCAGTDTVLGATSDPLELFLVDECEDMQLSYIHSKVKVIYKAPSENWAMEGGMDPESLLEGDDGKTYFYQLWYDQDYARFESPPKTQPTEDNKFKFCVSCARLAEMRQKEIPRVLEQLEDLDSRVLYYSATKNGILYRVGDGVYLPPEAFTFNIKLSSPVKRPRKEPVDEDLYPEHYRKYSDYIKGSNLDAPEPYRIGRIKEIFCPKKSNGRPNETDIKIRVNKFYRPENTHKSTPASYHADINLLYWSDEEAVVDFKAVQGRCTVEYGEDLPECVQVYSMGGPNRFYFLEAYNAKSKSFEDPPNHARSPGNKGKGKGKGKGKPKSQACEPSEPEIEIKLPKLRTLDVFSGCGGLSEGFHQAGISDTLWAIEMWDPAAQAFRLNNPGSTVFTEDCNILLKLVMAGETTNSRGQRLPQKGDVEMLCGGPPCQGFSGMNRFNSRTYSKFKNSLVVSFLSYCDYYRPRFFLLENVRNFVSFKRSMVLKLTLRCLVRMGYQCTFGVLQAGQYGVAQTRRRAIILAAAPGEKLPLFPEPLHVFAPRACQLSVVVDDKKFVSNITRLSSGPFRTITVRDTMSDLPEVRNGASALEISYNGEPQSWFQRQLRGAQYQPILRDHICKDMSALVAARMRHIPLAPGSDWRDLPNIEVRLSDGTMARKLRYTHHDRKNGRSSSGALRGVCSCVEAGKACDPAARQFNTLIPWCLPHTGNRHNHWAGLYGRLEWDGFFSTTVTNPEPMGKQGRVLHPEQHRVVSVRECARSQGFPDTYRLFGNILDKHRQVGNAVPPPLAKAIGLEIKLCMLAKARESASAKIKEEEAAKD
T3 sequence (P65502 whole entry): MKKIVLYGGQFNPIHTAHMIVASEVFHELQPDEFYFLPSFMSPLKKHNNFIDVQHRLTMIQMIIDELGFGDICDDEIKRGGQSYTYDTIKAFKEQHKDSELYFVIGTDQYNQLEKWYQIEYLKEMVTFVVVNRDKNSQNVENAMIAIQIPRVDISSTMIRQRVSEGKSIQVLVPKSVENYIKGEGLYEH
Chain of Cytochrome P450 3A4 (P08684 whole entry): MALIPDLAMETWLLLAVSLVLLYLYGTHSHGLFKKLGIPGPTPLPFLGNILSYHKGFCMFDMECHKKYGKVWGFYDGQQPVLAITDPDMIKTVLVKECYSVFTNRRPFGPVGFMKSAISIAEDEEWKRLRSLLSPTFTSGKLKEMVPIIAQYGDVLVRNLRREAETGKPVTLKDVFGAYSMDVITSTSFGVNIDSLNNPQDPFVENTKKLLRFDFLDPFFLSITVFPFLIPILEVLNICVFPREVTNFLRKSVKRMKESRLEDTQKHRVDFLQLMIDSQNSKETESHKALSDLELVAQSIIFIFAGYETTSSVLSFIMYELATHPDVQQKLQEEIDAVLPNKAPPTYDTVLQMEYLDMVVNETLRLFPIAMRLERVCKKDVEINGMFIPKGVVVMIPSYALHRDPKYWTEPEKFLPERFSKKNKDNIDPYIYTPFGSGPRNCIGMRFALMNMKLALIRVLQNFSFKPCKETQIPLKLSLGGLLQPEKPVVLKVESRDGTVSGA
Chain of Glucose-6-phosphate 1-dehydrogenase (P11413 whole entry): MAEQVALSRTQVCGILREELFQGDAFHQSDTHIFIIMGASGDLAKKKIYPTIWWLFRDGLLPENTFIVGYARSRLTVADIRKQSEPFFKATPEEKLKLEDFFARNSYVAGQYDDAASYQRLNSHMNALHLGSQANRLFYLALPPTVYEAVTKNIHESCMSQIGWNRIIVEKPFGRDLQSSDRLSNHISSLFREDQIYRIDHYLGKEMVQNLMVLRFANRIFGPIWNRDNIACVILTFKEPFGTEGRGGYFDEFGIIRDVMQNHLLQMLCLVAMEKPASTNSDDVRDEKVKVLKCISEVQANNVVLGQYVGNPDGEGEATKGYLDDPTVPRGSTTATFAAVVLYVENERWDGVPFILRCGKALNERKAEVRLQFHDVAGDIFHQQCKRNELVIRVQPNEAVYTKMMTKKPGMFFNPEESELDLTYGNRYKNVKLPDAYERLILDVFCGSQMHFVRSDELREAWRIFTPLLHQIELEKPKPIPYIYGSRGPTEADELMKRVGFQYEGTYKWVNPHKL
Chain of Cytochrome P450 2D6 (P10635 whole entry): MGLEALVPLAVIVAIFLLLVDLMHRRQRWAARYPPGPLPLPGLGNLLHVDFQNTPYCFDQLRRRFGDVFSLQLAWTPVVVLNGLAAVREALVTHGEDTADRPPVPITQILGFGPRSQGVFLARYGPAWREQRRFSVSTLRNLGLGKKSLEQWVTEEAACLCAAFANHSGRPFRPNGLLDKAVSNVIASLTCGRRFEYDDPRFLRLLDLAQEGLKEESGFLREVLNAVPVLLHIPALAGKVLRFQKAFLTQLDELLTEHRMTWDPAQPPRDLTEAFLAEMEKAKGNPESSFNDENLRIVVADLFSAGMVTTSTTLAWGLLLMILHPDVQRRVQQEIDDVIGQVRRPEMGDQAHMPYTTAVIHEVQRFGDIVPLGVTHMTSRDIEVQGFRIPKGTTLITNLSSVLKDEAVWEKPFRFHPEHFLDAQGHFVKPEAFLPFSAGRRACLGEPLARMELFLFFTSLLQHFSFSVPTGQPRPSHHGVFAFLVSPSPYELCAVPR

## COc1ccc(C2c3c(ncn(CCCN4CCOCC4)c3=N)Oc3ccc4ccccc4c32)cc1OC (stereo not drawn)
[1]
  IC50: 23.8 µM (active)
[2]
  CC50: > 25 µM (active)

## CCOC(=O)c1sc(-c2ccccc2)cc1NC(=O)Nc1ccccc1
[3]
  EC50: 16.8 µM (active)
[4]
  IC50: 9.28 µM (active)
[5]
  EC50: 3.49 µM (active)
[6]
  IC50: 21.9 µM (inactive)

## CC(C)(C)CC(=O)Nc1cccc2c1CCCC2
[7]
  IC50: > 99 µM (inactive)

## CCCc1cc(=O)[nH]c(SCc2cc(Cl)ccc2OC(F)F)n1
[4]
  IC50: 9.01 µM (active)
[8]
  AC50: 20 µM (inconclusive)
[9]
  AC50: 1.12 µM (inconclusive)
[6]
  IC50: 9.02 µM (active)

## COc1ccc(NS(=O)(=O)c2ccc(N3CCCC3)c(NC(=S)Nc3cccc(C)c3C)c2)cc1
[10]
  IC50: > 80 µM (inactive)
[11]
  IC50: > 50 µM (not active)

## Cc1nc(N2CCN(S(=O)(=O)c3ccccc3)CC2)c2cc(-c3ccccc3)sc2n1
[12]
  AC50: > 350 µM (inactive)

## O=C1NC(=O)N(CCc2ccccc2)C(=O)/C1=C(O)/C=C/c1ccccc1
[1]
  IC50: > 25 µM (active)
[2]
  CC50: 13.3 µM (active)

## OCC1(CCOc2ccccc2)CCN(Cc2nc3cc(F)ccc3[nH]2)CC1
[1]
  IC50: 24.6 µM (active)

## O=C(Nc1ccccc1O)c1cc2cc(Br)ccc2oc1=O
[12]
  AC50: 221 µM (active)

## O=C(O)c1cc2c(cc1NC(=O)c1ccccc1OC(F)F)OCCCO2
[4]
  IC50: 6.69 µM (active)
[6]
  IC50: 9.56 µM (active)

## CC(=NNc1nc2ccccc2s1)c1ccncn1
[1]
  IC50: > 25 µM (active)
[2]
  CC50: 5.47 µM (active)

## NC(CSC(c1ccccc1)(c1ccccc1)c1ccc(-c2ccccc2)cc1)C(=O)O (stereo not drawn)
[13]
  IC50: 24 µM (active)
[14]
  IC50: 11.5 µM (active)
[7]
  IC50: 9.65 µM (active)

## CCS(=O)(=O)Nc1cccc(C(=C2CCCCC2)c2c[nH]cn2)c1
[15]
  AC50: 14.1 µM (inconclusive)

## CCn1cnc2c(Nc3cccc(Cl)c3)nc(C#N)nc21
[12]
  AC50: 50 µM (active)

## CCCN(CCC)CCc1ccc(O)c(O)c1 [DIPROPYLDOPAMINE HYDROBROMIDE]
[15]
  AC50: 15.8 µM (inconclusive)
